This is an account of results in US20240376084A1, “INHIBITORS OF ALPHA-HEMOLYSIN OF STAPHYLOCOCCUS AUREUS” (Helmholtz-Zentrum Fur Infektionsforschung GmbH, priority 2021, published 2024).

pEC50, pIC50: −log10 of the molar value.

For orientation: pEC50 means the negative decadic logarithm of the EC50, by convention in mol/L. Low readings indicate a high EC50, high ones a low EC50. As usually defined, the pIC50 is the IC50 on a negative log10 scale, so that one unit is a factor of ten.

Experiment [1] addresses hemolysin alpha from Staphylococcus aureus (Staphylococcus aureus, UniProt P09616). Nature of the experiment: cell-based.
Experiment [2] addresses S. aureus Alpha hemolysin (Staphylococcus aureus, UniProt P09616). Briefly: cell-based. The following applies: A549-LDH Assay activity.

S. aureus Alpha hemolysin, sequence (P09616 27-319 limits assumed): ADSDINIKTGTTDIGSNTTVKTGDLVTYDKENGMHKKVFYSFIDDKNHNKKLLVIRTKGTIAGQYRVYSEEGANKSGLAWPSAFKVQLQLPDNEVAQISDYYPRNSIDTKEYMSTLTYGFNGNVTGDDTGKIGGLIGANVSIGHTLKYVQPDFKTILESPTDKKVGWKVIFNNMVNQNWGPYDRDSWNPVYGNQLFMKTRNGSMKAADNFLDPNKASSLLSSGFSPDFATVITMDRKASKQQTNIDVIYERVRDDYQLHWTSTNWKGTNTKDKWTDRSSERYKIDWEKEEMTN
hemolysin alpha from Staphylococcus aureus, sequence (P09616 27-319 limits assumed): as above

As for `Cc1cc2[nH]c(=O)c(=O)[nH]c2cc1S(=O)(=O)Nc1ccc(C2CCC2)cc1` [Compound 362, N-(4-cyclobutylphenyl)-7-methyl-2,3-dioxo-1,4-dihydroquinoxaline-6-sulfonamide], the pEC50 in experiment [1] is 6.00 to 7.00; in experiment [2], 7.00 to 7.52.
In experiment [1], `Cc1cc(NS(=O)(=O)c2cc3[nH]c(=O)c(=O)[nH]c3cc2Cl)cc(C)c1-c1ccccc1` [Compound 106, 7-chloro-N-(2,6-dimethyl-[1,1′-biphenyl]-4-yl)-2,3-dioxo-1,2,3,4-tetrahydroquinoxaline-6-sulfonamide] gave a pIC50 of 6.00 to 7.00. The same molecule showed a pEC50 in experiment [2] of 7.00 to 7.52.
As for `COCCn1cc(-c2ccc(NS(=O)(=O)c3cc4[nH]c(=O)c(=O)[nH]c4cc3C)cc2Cl)cn1` [Compound 344, N-[3-chloro-4-[1-(2-methoxyethyl)pyrazol-4-yl]phenyl]-7-methyl-2,3-dioxo-1,4-dihydroquinoxaline-6-sulfonamide], the pEC50 was 5.46 to 6.00 in experiment [1] and 5.22 to 6.00 in experiment [2].
Consider `C#Cc1cc(NS(=O)(=O)c2cc3[nH]c(=O)c(=O)[nH]c3cc2C)ccc1-c1ccc2cc[nH]c2c1` [Compound 301, N-[3-ethynyl-4-(1H-indol-6-yl)phenyl]-7-methyl-2,3-dioxo-1,4-dihydroquinoxaline-6-sulfonamide], for which the pEC50 in experiment [1] and in experiment [2] was over 7.52 each time.
Consider `Cc1nc2ccc(-c3ccc(NS(=O)(=O)c4cc5[nH]c(=O)c(=O)[nH]c5cc4C)cc3Cl)cc2[nH]1` [Compound 361, N-[3-chloro-4-(2-methyl-3H-benzimidazol-5-yl)phenyl]-7-methyl-2,3-dioxo-1,4-dihydroquinoxaline-6-sulfonamide], for which the values for the pEC50 in experiment [1] and in experiment [2] were 7.00 to 7.52 and over 7.52, respectively.
For `O=c1[nH]c2cc(Cl)c(S(=O)(=O)Nc3ccc(Br)c(Cl)c3)cc2[nH]c1=O` [Compound 144, N-(4-bromo-3-chlorophenyl)-7-chloro-2,3-dioxo-1,2,3,4-tetrahydroquinoxaline-6-sulfonamide], in experiment [1], the pIC50 is 6.00 to 7.00. The same molecule gave a pEC50 in experiment [2] of 5.22 to 6.00.
Take `Cc1cc2[nH]c(=O)c(=O)[nH]c2cc1S(=O)(=O)Nc1ccc(-c2cccc(N3CCC3)c2)c(Cl)c1` [Compound 206, N-(3′-(azetidin-1-yl)-2-chloro-[1,1′-biphenyl]-4-yl)-7-methyl-2,3-dioxo-1,2,3,4-tetrahydroquinoxaline-6-sulfonamide]: the pEC50 in experiment [1] was over 7.52; in experiment [2], 7.00 to 7.52.
For the molecule `Cc1cc2[nH]c(=O)c(=O)[nH]c2cc1S(=O)(=O)Nc1ccc(N2CCCOCC2)c(Cl)c1` [Compound 208, N-(3-chloro-4-(1,4-oxazepan-4-yl)phenyl)-7-methyl-2,3-dioxo-1,2,3,4-tetrahydroquinoxaline-6-sulfonamide], in experiment [1], the pEC50 is 5.46 to 6.00.
With `CC(C)c1cc2[nH]c(=O)c(=O)[nH]c2cc1S(=O)(=O)Nc1ccc(Br)c(Cl)c1` [Compound 154, N-(4-bromo-3-chlorophenyl)-7-isopropyl-2,3-dioxo-1,2,3,4-tetrahydroquinoxaline-6-sulfonamide], the negative logarithm of the IC50 (pIC50) in experiment [1] is 6.00 to 7.00.
With `Cc1cc2[nH]c(=O)c(=O)[nH]c2cc1S(=O)(=O)Nc1ccc(OC(F)(F)F)cn1` [Compound 222, 7-methyl-2,3-dioxo-N-(5-(trifluoromethoxy)pyridin-2-yl)-1,2,3,4-tetrahydroquinoxaline-6-sulfonamide], the pEC50 in experiment [1] was 6.00 to 7.00.
Take `O=c1[nH]c2cc(F)c(S(=O)(=O)Nc3ccc(C(F)(F)F)cc3)cc2[nH]c1=O` [Compound 160, 7-fluoro-2,3-dioxo-N-(4-(trifluoromethyl)phenyl)-1,2,3,4-tetrahydroquinoxaline-6-sulfonamide]: the pIC50 in experiment [1] was 5.46 to 6.00.
In experiment [1], `Cc1cc(NS(=O)(=O)c2cc3[nH]c(=O)c(=O)[nH]c3cc2Cl)cc(C)c1-c1ccoc1` [Compound 156, 7-chloro-N-(4-(furan-3-yl)-3,5-dimethylphenyl)-2,3-dioxo-1,2,3,4-tetrahydroquinoxaline-6-sulfonamide] gave a pIC50 of 6.00 to 7.00.
The same measure, in the same setting: then `Cc1cc(NS(=O)(=O)c2cc3[nH]c(=O)c(=O)[nH]c3cc2F)ccc1Br` [Compound 163, N-(4-bromo-3-methylphenyl)-7-fluoro-2,3-dioxo-1,2,3,4-tetrahydroquinoxaline-6-sulfonamide], with 6.00 to 7.00.
Take `O=c1[nH]c2cc(F)c(S(=O)(=O)Nc3ccc(C(F)(F)F)c(Cl)c3)cc2[nH]c1=O` [Compound 165, N-(3-chloro-4-(trifluoromethyl)phenyl)-7-fluoro-2,3-dioxo-1,2,3,4-tetrahydroquinoxaline-6-sulfonamide]: the pIC50 in experiment [1] is 5.46 to 6.00.
In experiment [1], `Cc1cc2[nH]c(=O)c(=O)[nH]c2cc1S(=O)(=O)Nc1ccc(OC(F)(F)F)nc1` [Compound 223, 7-methyl-2,3-dioxo-N-(6-(trifluoromethoxy)pyridin-3-yl)-1,2,3,4-tetrahydroquinoxaline-6-sulfonamide] showed a negative logarithm of the EC50 (pEC50) of 6.00 to 7.00.
Molecule `O=c1[nH]c2cc3c(cc2[nH]c1=O)S(=O)(=O)N(c1ccc(OC(F)(F)F)cc1)CCO3` [Compound 237] had a pEC50 in experiment [1] of 6.00 to 7.00.
Turning to `Cc1cc2[nH]c(=O)c(=O)[nH]c2cc1S(=O)(=O)Nc1cnn(-c2ccccc2)c1` [Compound 207, 7-methyl-2,3-dioxo-N-(1-phenyl-1H-pyrazol-4-yl)-1,2,3,4-tetrahydroquinoxaline-6-sulfonamide], the negative logarithm of the EC50 (pEC50) in experiment [1] was 5.46 to 6.00.
Same read-out and setting: to `Cc1cc2[nH]c(=O)c(=O)[nH]c2cc1S(=O)(=O)Nc1ccc(N2CCCC2)c(Cl)c1` [Compound 196, N-(3-chloro-4-(pyrrolidin-1-yl)phenyl)-7-methyl-2,3-dioxo-1,2,3,4-tetrahydroquinoxaline-6-sulfonamide] belongs 7.00 to 7.52.
In turn, `O=c1[nH]c2cc(Br)c(S(=O)(=O)Nc3ccc(C4CC4)cc3)cc2[nH]c1=O` [Compound 96, 7-bromo-N-(4-cyclopropylphenyl)-2,3-dioxo-1,2,3,4-tetrahydroquinoxaline-6-sulfonamide] gave a pIC50 in experiment [1] of 6.00 to 7.00.
`Cc1ccc(-c2ccc(NS(=O)(=O)c3cc4[nH]c(=O)c(=O)[nH]c4cc3C)cc2)c(C)c1` [Compound 118, N-(2′,4′-dimethyl-[1,1′-biphenyl]-4-yl)-7-methyl-2,3-dioxo-1,2,3,4-tetrahydroquinoxaline-6-sulfonamide] gave a pIC50 in experiment [1] of 6.00 to 7.00.
The same measure, in the same setting: to `CCCc1ccc(NS(=O)(=O)c2cc3[nH]c(=O)c(=O)[nH]c3cc2C(C)C)cc1` [Compound 151, 7-isopropyl-2,3-dioxo-N-(4-propylphenyl)-1,2,3,4-tetrahydroquinoxaline-6-sulfonamide] belongs 6.00 to 7.00; to `Cc1cc(NS(=O)(=O)c2cc3[nH]c(=O)c(=O)[nH]c3cc2Cl)cc(C)c1-c1ccncc1` [Compound 157, 7-chloro-N-(3,5-dimethyl-4-(pyridin-4-yl)phenyl)-2,3-dioxo-1,2,3,4-tetrahydroquinoxaline-6-sulfonamide], 5.46 to 6.00.
In the case of `Cc1cc2[nH]c(=O)c(=O)[nH]c2cc1S(=O)(=O)Nc1ccc2c(c1)OCCO2` [Compound 242, N-(2,3-dihydrobenzo[b][1,4]dioxin-6-yl)-7-methyl-2,3-dioxo-1,2,3,4-tetrahydroquinoxaline-6-sulfonamide], in experiment [1], the pEC50 is 6.00 to 7.00.
For `Cc1cc2[nH]c(=O)c(=O)[nH]c2cc1S(=O)(=O)Nc1ccc(N(C)C)cc1` [Compound 133, N-(4-(dimethylamino)phenyl)-7-methyl-2,3-dioxo-1,2,3,4-tetrahydroquinoxaline-6-sulfonamide], in experiment [1], the negative logarithm of the IC50 (pIC50) was 6.00 to 7.00.
With `Cc1cc2[nH]c(=O)c(=O)[nH]c2cc1S(=O)(=O)Nc1cc(C)c(-c2ccnn2C)c(C)c1` [Compound 188, N-(3,5-dimethyl-4-(1-methyl-1H-pyrazol-5-yl)phenyl)-7-methyl-2,3-dioxo-1,2,3,4-tetrahydroquinoxaline-6-sulfonamide], the pIC50 in experiment [1] is 5.46 to 6.00.
As to `Cc1cc2[nH]c(=O)c(=O)[nH]c2cc1S(=O)(=O)Nc1ccc(-c2ccccc2)nc1` [Compound 224, 7-methyl-2,3-dioxo-N-(6-phenylpyridin-3-yl)-1,2,3,4-tetrahydroquinoxaline-6-sulfonamide], in experiment [1], the negative logarithm of the EC50 (pEC50) is 6.00 to 7.00.
Take `Cc1cc(NS(=O)(=O)c2cc3[nH]c(=O)c(=O)[nH]c3cc2Cl)cc(C)c1-c1ccsc1` [Compound 80, 7-chloro-N-(3,5-dimethyl-4-(thiophen-3-yl)phenyl)-2,3-dioxo-1,2,3,4-tetrahydroquinoxaline-6-sulfonamide]: the negative-log IC50 (pIC50) in experiment [1] is 6.00 to 7.00.
`Cc1cc2[nH]c(=O)c(=O)[nH]c2cc1S(=O)(=O)Nc1cc(Cl)c(-c2ccc(F)cc2)cn1` [Compound 212, N-(4-chloro-5-(4-fluorophenyl)pyridin-2-yl)-7-methyl-2,3-dioxo-1,2,3,4-tetrahydroquinoxaline-6-sulfonamide] gave a pEC50 in experiment [1] of 7.00 to 7.52.
Same read-out and setting: to `CN(C)c1cc2[nH]c(=O)c(=O)[nH]c2cc1S(=O)(=O)Nc1ccc(OC(F)(F)F)cc1` [Compound 221, 7-(dimethylamino)-2,3-dioxo-N-(4-(trifluoromethoxy)phenyl)-1,2,3,4-tetrahydroquinoxaline-6-sulfonamide] belongs 7.00 to 7.52; to `Cc1cc2[nH]c(=O)c(=O)[nH]c2cc1S(=O)(=O)Nc1ccc2cccnc2c1` [Compound 231, 7-methyl-2,3-dioxo-N-(quinolin-7-yl)-1,2,3,4-tetrahydroquinoxaline-6-sulfonamide], 6.00 to 7.00.
`Cc1cc2[nH]c(=O)c(=O)[nH]c2cc1S(=O)(=O)Nc1ccc(N2CCOCC2)cc1` [Compound 180, 7-methyl-N-(4-morpholinophenyl)-2,3-dioxo-1,2,3,4-tetrahydroquinoxaline-6-sulfonamide] had a pIC50 in experiment [1] of 5.46 to 6.00.
On the same count and under the same terms, then `Cc1cc(NS(=O)(=O)c2cc3[nH]c(=O)c(=O)[nH]c3cc2Cl)cc(C)c1Br` [Compound 145, N-(4-bromo-3,5-dimethylphenyl)-7-chloro-2,3-dioxo-1,2,3,4-tetrahydroquinoxaline-6-sulfonamide], with 6.00 to 7.00; and `O=c1[nH]c2cc(F)c(S(=O)(=O)Nc3ccc4c(c3)CCCC4)cc2[nH]c1=O` [Compound 164, 7-fluoro-2,3-dioxo-N-(5,6,7,8-tetrahydronaphthalen-2-yl)-1,2,3,4-tetrahydroquinoxaline-6-sulfonamide], with 6.00 to 7.00.
